{"source": "patent US20060058504A1", "about": "“Peptides capable of inducing attraction to the axonal growth and their use for treating neurodegenerative diseases” (Centre National de la Recherche Scientific (CNRS), priority 2002, published 2006)", "key": {"[1]": {"system": "cortical axons repelled by Sema3A secreted from the ventral spinal cord", "assay": "Co-culture of cortical slices and ventral spinal cord explants (axon guidance response to Sema3A)", "format": "cell-based, mice", "protocol": "Blocks of cortex were dissected from P0 (postnatal day 0) to P2 mice and cut into 250 μm thick slices with a McIlwain tissue chopper. The ventral part of the cervical spinal cord was dissected and cut into 250 μm thick slices. Co-culture of cortical slices and ventral spinal cord explants were performed in a three-dimensional plasma clot, as described previously (Castellani et al., 2000). Cortical slices were oriented in the plasma clot as indicated in FIG. 1B to give to axons equivalent chances to be deflected away or towards the spinal cord explant. Purified wild-type or mutant L1Fc chimeras were added to the culture medium (3 μg/ml). Inhibitors of the guanylyl cyclase (ODQ, 10^−5 M, Sigma) and NOS (7NI, […], Sigma) were added to the culture medium, either alone or with wild-type L1Fc (3 μg/ml). After one or two days in vitro (DIV), the cultures were fixed with 4% paraformaldehyde (PFA) and analyzed by phase contrast microscopy (Axiovert 35-M, Zeiss). A qualitative guidance index was attributed to the co-cultures, to assess the degree of repulsive (negative values) or attractive (positive values) effects (Castellani et al., 2000). The index ranged from −2 (when most fibers grew away from the spinal cord explant) to +2 (when most fibers grew towards the explant), with intermediate situations (index of −1 and +1 for moderate guidance effects). An index of zero was attributed to the cultures showing no preferential growth. Quantitative analysis of axon length and number of axons growing from cortical slices was performed as described previously (Castellani et al., 2000). A proximal and a distal region, each of them covering a 600 μm-piece of cortical tissue were determined for each culture. All fibers extending from these two regions were counted and the length of the three longest fibers was measured, using computer analysis software (Visiolab 2000, Biocom). Immunofluorescence labeling of axons was performed using the mouse anti-phosphorylated neurofilament antibody SMI31 (Stemberger and Meyer Inc.), and Texas red-conjugated secondary anti-mouse antibody (see result obtained for number of axons and axonal length in the following tables 1 and 2).\nIt has been previously developed an assay system using explants of ventral spinal cord co-cultured with cortical axons in order to determine the factors involved in axonal repulsion and attraction (Castellani et al., 2000). Using this system we have shown that Sema3A secreted from the ventral spinal cord repels cortical axons. In the presence of soluble wild-type L1Fc chimeric protein however, repulsion is switched to attraction (Castellani et al., […]). In the present study, we aimed to identify the L1 interactions underlying the switching process. As Ig domains have been implicated in binding of Ig CAMs to many of their ligands (Brümmendorf and Rathjen, 1996) we hypothesized that they would also be required for L1 Fc-mediated switching. […] L1 Fc chimeras containing pathological missense mutations affecting specific Ig domains (De Angelis et al., 1999 and FIGS. 1A, 1B) were assessed for their ability to reverse Sema3A repulsion to attraction."}, "[2]": {"system": "Sema3A-induced endocytosis in neonatal cortical cells", "assay": "Rhodamine-Dextran uptake in neonatal cortical cells", "format": "cell-based", "settings": "15 min, peptide 10^−5M", "protocol": "(§1) Neonatal cortical cells or COS7 cells transfected with expression vectors for L1 and NP-1 were incubated for 15 min with Rhodamine-Dextran (2 mg/ml) mixed to a solution of Sema3A-AP supernatant, Sema3A and peptide (10^−5M), peptide alone (10^−5M) or control supernatant. Cells were fixed with PFA 4% and processed for immunocytochemistry as described in the above sections. To detect intracellular proteins, cells were permeabilized with methanol for 2 min.\n(§2) Therefore it has been tested whether L1 mimetic peptide was able to block endocytosis. To visualize endocytosis we examined the uptake of Rhodamine-Dextran applied on live cortical cultures in various conditions. Cells were treated for 15 min with Rhodamine-Dextran together with Sema3A alone, Sema3A combined with the L1 mimetic peptide, peptide alone or untreated as control conditions. Strikingly, uptake of Rhodamine-Dextran was exclusively observed when cells were treated with Sema3A alone. Under this condition, spots of internalized fluorescence were observed along axon shafts and surrounding the cell bodies. […] To correlate this process with L1/NP-1 cis and trans interactions, the experiments of Rhodamine-Dextran uptake were performed on COS7 cells transfected to co-express L1 and NP-1 (FIG. 6B)."}, "[3]": {"system": "Sema3A-induced endocytosis in COS7 cells co-expressing L1 and NP-1", "assay": "Rhodamine-Dextran uptake in COS7 cells co-expressing L1 and NP-1", "format": "cell-based", "settings": "15 min, peptide 10^−5M", "protocol": "as §1, §2"}, "[4]": {"system": "Sema3A-induced co-internalization of L1 and NP-1", "assay": "Immunocytochemical detection of cell-surface L1 and NP-1", "format": "cell-based", "settings": "peptide 10^−5M", "protocol": "as §1\nIn parallel, cells submitted to the same treatments were processed for immunocytochemical detection of L1 and NP-1. […] Furthermore, in the Sema3A-treated cultures L1 and NP-1 immunoreactivities were detected after permeabilization, as co-localized cytoplasmic patches (FIGS. 7F-7H)."}, "[5]": {"system": "L1/NP-1 complex", "sequence (O14786 22-923)": "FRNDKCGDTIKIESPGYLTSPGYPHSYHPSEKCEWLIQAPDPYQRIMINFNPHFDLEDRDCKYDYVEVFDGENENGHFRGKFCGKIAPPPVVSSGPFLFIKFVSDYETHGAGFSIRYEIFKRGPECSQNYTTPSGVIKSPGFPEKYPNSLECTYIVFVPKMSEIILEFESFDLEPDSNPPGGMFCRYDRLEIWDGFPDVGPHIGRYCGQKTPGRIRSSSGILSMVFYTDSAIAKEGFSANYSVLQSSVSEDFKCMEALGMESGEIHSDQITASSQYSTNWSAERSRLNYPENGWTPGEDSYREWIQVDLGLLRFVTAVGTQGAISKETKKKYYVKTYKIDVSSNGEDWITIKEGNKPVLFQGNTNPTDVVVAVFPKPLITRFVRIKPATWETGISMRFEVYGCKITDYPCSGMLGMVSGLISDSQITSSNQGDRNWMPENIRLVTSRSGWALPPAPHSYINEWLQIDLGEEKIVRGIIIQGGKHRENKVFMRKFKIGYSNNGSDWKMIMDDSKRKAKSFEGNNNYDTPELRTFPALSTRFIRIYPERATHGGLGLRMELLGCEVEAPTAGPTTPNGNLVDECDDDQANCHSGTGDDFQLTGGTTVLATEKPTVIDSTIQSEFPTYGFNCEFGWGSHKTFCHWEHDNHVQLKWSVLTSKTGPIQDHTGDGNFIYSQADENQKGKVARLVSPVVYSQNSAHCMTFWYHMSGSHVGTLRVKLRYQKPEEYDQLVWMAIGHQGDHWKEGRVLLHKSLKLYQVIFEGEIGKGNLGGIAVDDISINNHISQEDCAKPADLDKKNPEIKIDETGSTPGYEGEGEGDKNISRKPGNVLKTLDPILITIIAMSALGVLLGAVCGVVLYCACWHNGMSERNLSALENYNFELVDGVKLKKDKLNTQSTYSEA", "sequence (P32004 20-1257 partner)": "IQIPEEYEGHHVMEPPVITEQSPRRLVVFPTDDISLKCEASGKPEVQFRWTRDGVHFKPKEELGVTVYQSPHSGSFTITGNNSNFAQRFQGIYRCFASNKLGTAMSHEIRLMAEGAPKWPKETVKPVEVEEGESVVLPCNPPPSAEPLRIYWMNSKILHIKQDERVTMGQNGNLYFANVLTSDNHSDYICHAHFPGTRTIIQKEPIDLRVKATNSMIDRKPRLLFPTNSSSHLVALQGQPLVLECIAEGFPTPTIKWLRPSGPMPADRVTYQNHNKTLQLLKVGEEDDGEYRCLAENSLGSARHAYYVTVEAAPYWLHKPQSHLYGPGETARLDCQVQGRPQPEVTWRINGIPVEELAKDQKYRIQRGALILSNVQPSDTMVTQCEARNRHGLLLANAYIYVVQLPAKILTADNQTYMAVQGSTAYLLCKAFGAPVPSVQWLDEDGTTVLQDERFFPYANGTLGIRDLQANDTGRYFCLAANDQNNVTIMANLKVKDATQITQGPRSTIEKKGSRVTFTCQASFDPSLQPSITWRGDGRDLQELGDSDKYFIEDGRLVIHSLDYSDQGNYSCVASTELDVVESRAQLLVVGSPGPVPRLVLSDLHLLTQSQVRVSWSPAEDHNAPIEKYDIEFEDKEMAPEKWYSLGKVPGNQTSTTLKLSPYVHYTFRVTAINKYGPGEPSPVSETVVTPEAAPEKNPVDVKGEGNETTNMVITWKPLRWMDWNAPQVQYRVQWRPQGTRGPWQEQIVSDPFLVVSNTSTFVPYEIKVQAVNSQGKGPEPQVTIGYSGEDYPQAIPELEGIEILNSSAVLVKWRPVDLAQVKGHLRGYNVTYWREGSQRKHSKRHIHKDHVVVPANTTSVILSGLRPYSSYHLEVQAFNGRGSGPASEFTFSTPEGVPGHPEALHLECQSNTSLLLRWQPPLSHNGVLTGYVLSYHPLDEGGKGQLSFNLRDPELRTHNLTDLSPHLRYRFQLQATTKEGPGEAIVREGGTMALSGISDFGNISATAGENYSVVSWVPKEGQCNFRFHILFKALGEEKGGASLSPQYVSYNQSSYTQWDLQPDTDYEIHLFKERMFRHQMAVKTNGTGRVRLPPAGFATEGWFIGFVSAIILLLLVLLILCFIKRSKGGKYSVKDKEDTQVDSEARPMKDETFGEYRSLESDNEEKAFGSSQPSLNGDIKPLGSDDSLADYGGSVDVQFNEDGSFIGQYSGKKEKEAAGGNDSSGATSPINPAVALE", "assay": "Co-immunoprecipitation of the L1/NP-1 complex in presence of peptide", "format": "binding", "settings": "Sema3A combined to the peptide", "protocol": "COS cells were transfected with various expression vectors coding for full-length HA-tagged NP-1, myc-tagged cyt-deleted NP-1, wild-type L1, and L1 mutant constructs (G121S, A426D, L120V) using a lipofection transfection method (lipofectamine). After 2 DIV, cells were lysed with immunoprecipitation buffer (IP buffer: Hepes 25 mM, EDTA 5 mM, MgCl2 1 mM, PMSF 2 mM, glycerol 10% and triton X100 1%, pH 7). The lysate was incubated at 4° C. for 30 min, centrifuged for 5 min and pre-cleared with protein A-Sepharose for 2 hrs at 4° C. Samples were immunoprecipitated with mouse anti-HA (3μl, clone 12CA5, Roche), rabbit anti-L1 antibodies (3 μl), mouse anti-myc antibodies (3 μl, 9E 10, Sigma) coupled to rabbit anti-mouse antibodies on protein A preformed complexes for 16 hrs at 4° C. The beads were washed, and the precipitates analyzed by immunoblot using anti-HA (1:1000) and anti-L1 (1:1000) antibodies.\nA possible molecular mechanism by which soluble L1 and its mimetic peptide could exert their modulatory effect on Sema3A signaling is that they compete with transmembrane L1 in the L1/NP-1 complex. To address this issue we examined in immunoprecipitation experiments the L1/NP-1 complex in conditions mimicking either a repulsive (Sema3A alone) or an attractive (Sema3A combined to the peptide) environment. […]"}}, "note": "“Also recorded” adds a separate entry of the source."}
{"substance": "FASNKL (Description of the Artificial sequence Derived from the human amino-acid sequence of L1 Ig1 domain) [FASNKL120, six amino-acid peptide from L1 Ig1 domain]", "values": [{"measurement": "switching of Sema3A repulsion to attraction by peptide", "setting": "[1]; peptide at 10^−5 and 10^−6M", "value": "switched Sema3A repulsion to attraction"}, {"measurement": "conversion of Sema3A-induced chemorepulsion into attraction by peptide", "setting": "[1]; peptide at 10^−6M", "value": "successfully converted Sema3A-induced chemorepulsion into attraction"}, {"measurement": "Rhodamine-Dextran uptake, Sema3A combined with peptide", "setting": "[2]; listed as L1 mimetic peptide", "value": "blocks Sema3A-induced endocytosis; also recorded: Internalization was blocked"}, {"measurement": "Rhodamine-Dextran uptake, peptide alone", "setting": "[2]; listed as L1 mimetic peptide", "value": "no uptake of Rhodamine-Dextran could be detected; also recorded: Uptake of Rhodamine-Dextran was not detected"}, {"measurement": "Rhodamine-Dextran uptake, Sema3A combined with peptide", "setting": "[2]; listed as peptide mimicking soluble L1", "value": "blocks Sema3A-induced endocytosis"}, {"measurement": "Rhodamine-Dextran uptake, Sema3A combined with peptide", "setting": "[3]", "value": "This process was blocked"}, {"measurement": "Rhodamine-Dextran uptake, peptide alone", "setting": "[3]", "value": "no endocytosis could be detected"}, {"measurement": "Rhodamine-Dextran uptake, Sema3A combined with peptide", "setting": "[3]; listed as mimetic peptide", "value": "but not Sema3A combined with the mimetic peptide induced internalization"}, {"measurement": "Rhodamine-Dextran uptake, peptide alone", "setting": "[3]; listed as mimetic peptide", "value": "No fluorescent labeling was detected"}, {"measurement": "L1 and NP-1 cell surface expression, Sema3A combined with peptide", "setting": "[4]", "value": "the two proteins were detected; also recorded: blocked by the peptide; also recorded: detected on the cell membrane"}, {"measurement": "L1 and NP-1 cell surface expression, peptide alone", "setting": "[4]", "value": "cell surface expression was observed"}, {"measurement": "L1 and NP-1 cell surface expression, Sema3A combined with peptide", "setting": "[4]; listed as switching peptide", "value": "this process was blocked"}, {"measurement": "L1 and NP-1 cell surface expression, peptide alone", "setting": "[4]; listed as switching peptide", "value": "the two proteins were detected"}, {"measurement": "cis interaction between L1 and NP-1 in presence of the peptide", "setting": "[5]", "value": "did not abrogate the cis interaction between L1 and NP-1"}]}
